Assay results reported in paper PMC8220418, “A fragment-based approach to assess the ligandability of ArgB, ArgC, ArgD and ArgF in the L-arginine biosynthetic pathway of Mycobacterium tuberculosis” (Computational and Structural Biotechnology Journal, 2021).

System: M. tuberculosis ΔargB
Format: cell-based, Mycobacterium tuberculosis

SMILES | Inhibitory activity on growth with arginine present
O=c1cc(C(F)(F)F)[nH]c2c(C(F)(F)F)cccc12 [NMR711, 2,8-bis(trifluoromethyl)-1H-quinolin-4-one] | inhibitory
O=c1cc[nH]c2c(C(F)(F)F)cccc12 [NMR446, 8-(trifluoromethyl)-1H-quinolin-4-one] | no inhibitory activity
NC(N)=NOCC[C@H](N)C(=O)O [L-canavanine, reference compound] | no inhibitory activity
